# Test results from US20080153840A1, “REDUCTION OF CARDIOVASCULAR SYMPTOMS” (priority 2006, published 2008).
# Counter-ions that a name gives are not always drawn. Like-named read-outs stand apart in the source and are kept apart here.
# Key:
# anesthetized rabbits = test: clofilium-induced Torsades de Pointes in methoxamine-treated anesthetized rabbits; type: in vivo, rabbit
# Experimental: Spontaneous TdP was induced with methoxamine (α1-adrenoceptor agonist) followed by clofilium (Ikr blocker) in anesthetized rabbits as previously described by Carlsson et al (J. Cardiovas. Pharmacol 1990; 16:276-285). RAN was given via intravenous (iv) infusion 10 min prior to clofilium. Arterial pressure (BP), lead II ECG and endocardial Monophasic Action Potential (MAP) were recorded. QT interval was corrected for heart rate by using a formula developed for rabbits: QTc=QT−0.175*(RR−300).
# female rabbit hearts = test: female rabbit isolated hearts paced at 1 Hz: monophasic action potentials and 12-lead ECG
# [1] = test system: transient outward K+ current (Ito); settings: cited from earlier work
# [2] = cited from earlier work
# [3] = biological target: HERG channels expressed in HEK293 cells (Homo sapiens, UniProt Q12809); settings: for time constant for development of block of IHERG: human
# Sequence of HERG channels expressed in HEK293 cells (Q12809 whole entry): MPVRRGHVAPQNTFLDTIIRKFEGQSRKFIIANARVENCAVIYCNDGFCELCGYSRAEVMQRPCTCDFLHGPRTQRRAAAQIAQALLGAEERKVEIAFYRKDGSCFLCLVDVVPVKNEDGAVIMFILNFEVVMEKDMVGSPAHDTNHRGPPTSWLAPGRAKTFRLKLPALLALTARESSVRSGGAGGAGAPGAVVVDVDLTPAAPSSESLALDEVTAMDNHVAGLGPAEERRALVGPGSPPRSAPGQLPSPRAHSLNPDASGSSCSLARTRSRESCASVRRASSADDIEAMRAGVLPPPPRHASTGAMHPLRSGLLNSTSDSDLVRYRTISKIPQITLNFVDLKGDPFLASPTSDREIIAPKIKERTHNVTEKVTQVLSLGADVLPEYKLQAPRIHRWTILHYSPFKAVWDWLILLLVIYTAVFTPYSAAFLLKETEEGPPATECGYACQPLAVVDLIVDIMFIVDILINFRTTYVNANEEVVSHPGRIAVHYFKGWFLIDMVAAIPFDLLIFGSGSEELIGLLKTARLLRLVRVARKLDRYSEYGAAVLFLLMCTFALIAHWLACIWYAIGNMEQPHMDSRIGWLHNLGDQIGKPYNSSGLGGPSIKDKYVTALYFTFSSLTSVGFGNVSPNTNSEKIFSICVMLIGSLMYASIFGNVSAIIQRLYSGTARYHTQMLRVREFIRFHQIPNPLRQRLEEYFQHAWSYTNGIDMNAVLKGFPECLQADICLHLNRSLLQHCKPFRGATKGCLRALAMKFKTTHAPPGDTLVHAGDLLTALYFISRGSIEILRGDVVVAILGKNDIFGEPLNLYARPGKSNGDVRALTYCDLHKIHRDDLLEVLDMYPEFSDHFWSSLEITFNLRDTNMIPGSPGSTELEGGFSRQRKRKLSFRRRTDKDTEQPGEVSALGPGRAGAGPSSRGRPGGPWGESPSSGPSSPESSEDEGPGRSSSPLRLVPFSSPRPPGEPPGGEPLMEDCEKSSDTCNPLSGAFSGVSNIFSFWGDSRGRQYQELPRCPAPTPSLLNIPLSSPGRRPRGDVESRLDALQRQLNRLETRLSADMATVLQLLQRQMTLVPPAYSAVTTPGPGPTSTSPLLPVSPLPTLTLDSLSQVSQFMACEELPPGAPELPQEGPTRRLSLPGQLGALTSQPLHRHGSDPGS
# Text: Human-ether-a-go-go related gene (HERG) encodes the cardiac rapidly activating delayed rectifier K^+ current (IKr). Inhibition of HERG K^+ current (IHERG) is a mechanism for drug-induced long QT syndrome.
# IKr = settings: cited from earlier work
# [4] = test system: slow component of the delayed rectifier K+ current; settings: at 30 μM; cited from earlier work
# [5] = test system: inward rectifier K+ current (IKI); settings: cited from earlier work
# [6] = test system: rabbit and guinea-pig isolated hearts and canine ventricular myocytes; settings: cited from earlier work
# [7] = iv infusion 10 min prior to clofilium, n=6
# [8] = ranolazine 10 μM in the presence of 60 nM E-4031, n=9, p<0.01
compound,measurement,setting,value
"CCCCCCC[N+](CC)(CC)CCCCc1ccc(Cl)cc1.[Br-] [Clofilium, 4-chloro-N,N-diethyl-N-heptyl benzenebutanaminium bromide]",rabbits with TdP,"anesthetized rabbits; clofilium after methoxamine, rabbits with TdP/rabbits",6/6
same,MAPD90 after clofilium,"anesthetized rabbits; from 123±6 ms, n=6, P<0.05",201 ± 21 ms
same,QTc after clofilium,"anesthetized rabbits; from 130±4 ms, n=6, P<0.05",200 ± 18 ms
"Cc1cccc(CCN2CCC(C(=O)c3ccc(NS(C)(=O)=O)cc3)CC2)n1 [E-4031, N-(4-[(1-[2-(6-methyl-2-pyridyl)ethyl]-4-piperidylcarbonyl]phenyl)methanesulfonamidedihydrochloride dehydrate]",epicardial MAPD90 with drug,female rabbit hearts,254 ± 6 ms
same,increase of transmural MAPD dispersion,female rabbit hearts,74 ± 7 ms
same,prolongation of duration of epicardial MAP (MAPD90),female rabbit hearts,75 ± 5 ms
same,transmural MAPD dispersion with drug,female rabbit hearts,90 ± 10 ms
"NC1=N[C@H](O)[C@H]2[C@H]3O[C@]4(O)O[C@@H]([C@@H](O)[C@@]2(N1)[C@@H]4O)[C@]3(O)CO [TTX, Tetrodotoxin]",changes in the QRS interval,female rabbit hearts,no or minimal changes
same,decrease of transmural dispersion,female rabbit hearts,47 ± 11 ms
same,effect on MAPD90,female rabbit hearts,no effects
same,effect on transmural dispersion of MAPD90,female rabbit hearts,no effects
same,shortening of MAPD,female rabbit hearts,33 ± 8 ms
"COc1ccccc1OCC(O)CN1CCN(CC(=O)Nc2c(C)cccc2C)CC1 (stereo not shown) [ranolazine, N-(2,6-dimethylphenyl)-4-[2-hydroxy-3-(2-methoxyphenoxy)propyl]-1-piperazineacetamide]",effect on Ito,[1],no effect
same,occurrence of TdP,"anesthetized rabbits; RAN at 25 μM, P<0.005 vs vehicle control",0/6
same,QRS interval,"anesthetized rabbits; RAN at 25 μM, from 32±1 ms, n=5, P>0.05",33 ± 1 ms
same,PR interval,"anesthetized rabbits; RAN at 25 μM, from 79±2 ms, n=5, P>0.05",77 ± 1 ms
same,heart rate,"anesthetized rabbits; RAN at 25 μM, from 186±9 bpm, n=5, P>0.05",204±10 bpm
same,ED50 for suppression of clofilium-induced MAPD90 prolongation,anesthetized rabbits; [7],15 µM
same,ED50 for suppression of clofilium-induced QTc prolongation,anesthetized rabbits; [7],10 µM
same,ED50 for suppression of clofilium-induced TdP,anesthetized rabbits; [7],10 µM
same,effect on MAPD90,[2]; in the absence of ATX-II,increased
same,effect on MAPD,[2]; in the presence of 2 nM ATX-II,shortened
same,character of block of IHERG,[3],"reversible and voltage-dependent, but frequency-independent"
same,time constant for development of block of IHERG,[3]; 10 μM,76.6 ± 1.6 ms
same,time constant for development of block of IHERG,[3]; 30 μM,35.8 ± 2.4 ms
same,time constant for development of block of IHERG,[3]; 100 μM,19.4 ± 1.7 ms
same,effect on IKr,IKr,inhibit
same,changes in the QRS interval,female rabbit hearts,no or minimal changes
same,effect on spontaneous and pause-triggered episodes of TdP induced by 60 nM E-4031,female rabbit hearts; ranolazine 10 μM,abolished
same,decrease of transmural dispersion,female rabbit hearts; [8],40 ± 9 ms
same,shortening of MAPD90,female rabbit hearts; [8],19 ± 5 ms
same,effect on transmural dispersion of MAPD90,female rabbit hearts; ranolazine 5-30 μM alone,without increasing
same,prolongation of epicardial MAPD90,"female rabbit hearts; ranolazine 5-30 μM alone, concentration-dependent, n=7, p<0.01",32±4%
same,inhibition of the slow component of the delayed rectifier K+ current (IKr),[4],~17%
same,effect on IKI,[5],no effect
same,increase in monophasic APD (MAPD) or QT interval,[6]; at therapeutic concentrations,2 to 6 ms
same,pro-arrhythmic activity,[6],not associated with pro-arrhythmic activity
